According to article PMC7406541, “Vectorial transport of the arginine derivatives asymmetric dimethylarginine (ADMA) and L-homoarginine by OATP4C1 and P-glycoprotein studied in double-transfected MDCK cells” (Amino Acids, 2020):

Experiments:
MDCK-VC cells = test: Transcellular basal to apical transport across MDCK-VC control cell monolayers; assay type: in vitro ADME; conditions: 1 µM, 1 h
Protocol: Transcellular transport in MDCK-OATP4C1-P-gp double-transfectants and respective MDCK-OATP4C1 and MDCK-P-gp single-transfectants as well as in the MDCK-VC control cell line was analyzed as previously described (Taghikhani et al. [2017]). Cells were cultured in Transwell membrane inserts (14 mm diameter, 0.4 µm pore size; Greiner Bio-One, Frickenhausen, Germany) in an initial density of 5 × 10^5 cells/well. Cells were cultivated at 37 °C for 48 h before inducing them by replacing the medium with fresh medium containing 10 mM of sodium butyrate. After 24 h of further incubation, cells were used for transcellular transport studies.
To study the transcellular transport, cells were washed with pre-warmed (37 °C) uptake buffer applied to both the basolateral and apical compartment. […] After incubating the cells for stated time points, the amount of radioactivity on the apical compartment was measured by liquid scintillation counting.
Concentration dependency of transcellular transport of ADMA and L-homoarginine was studied by applying the respective compound in concentrations of 1, 20, 50 and 100 µM on the basolateral compartment of MDCK transfectants. […] Cells were lysed and the cellular protein content was quantified as described. 400 µl (or 80 µl for time-dependency analysis) of the applied donor solutions were also analyzed by scintillation counting as reference. […]

[1] = set-up: method as in Kielstein et al. [2009]; conditions: ref Kielstein et al. [2009]; cited from earlier work
human P-gp = human P-gp (Homo sapiens, UniProt P08183); test: Transcellular basal to apical (vectorial) transport across MDCK-P-gp cell monolayers; conditions: for Average ratio of vectorial transport (relative to MDCK-VC cells): MDCK-P-gp, 1 h incubation
Sequence of human P-gp (P08183 whole entry): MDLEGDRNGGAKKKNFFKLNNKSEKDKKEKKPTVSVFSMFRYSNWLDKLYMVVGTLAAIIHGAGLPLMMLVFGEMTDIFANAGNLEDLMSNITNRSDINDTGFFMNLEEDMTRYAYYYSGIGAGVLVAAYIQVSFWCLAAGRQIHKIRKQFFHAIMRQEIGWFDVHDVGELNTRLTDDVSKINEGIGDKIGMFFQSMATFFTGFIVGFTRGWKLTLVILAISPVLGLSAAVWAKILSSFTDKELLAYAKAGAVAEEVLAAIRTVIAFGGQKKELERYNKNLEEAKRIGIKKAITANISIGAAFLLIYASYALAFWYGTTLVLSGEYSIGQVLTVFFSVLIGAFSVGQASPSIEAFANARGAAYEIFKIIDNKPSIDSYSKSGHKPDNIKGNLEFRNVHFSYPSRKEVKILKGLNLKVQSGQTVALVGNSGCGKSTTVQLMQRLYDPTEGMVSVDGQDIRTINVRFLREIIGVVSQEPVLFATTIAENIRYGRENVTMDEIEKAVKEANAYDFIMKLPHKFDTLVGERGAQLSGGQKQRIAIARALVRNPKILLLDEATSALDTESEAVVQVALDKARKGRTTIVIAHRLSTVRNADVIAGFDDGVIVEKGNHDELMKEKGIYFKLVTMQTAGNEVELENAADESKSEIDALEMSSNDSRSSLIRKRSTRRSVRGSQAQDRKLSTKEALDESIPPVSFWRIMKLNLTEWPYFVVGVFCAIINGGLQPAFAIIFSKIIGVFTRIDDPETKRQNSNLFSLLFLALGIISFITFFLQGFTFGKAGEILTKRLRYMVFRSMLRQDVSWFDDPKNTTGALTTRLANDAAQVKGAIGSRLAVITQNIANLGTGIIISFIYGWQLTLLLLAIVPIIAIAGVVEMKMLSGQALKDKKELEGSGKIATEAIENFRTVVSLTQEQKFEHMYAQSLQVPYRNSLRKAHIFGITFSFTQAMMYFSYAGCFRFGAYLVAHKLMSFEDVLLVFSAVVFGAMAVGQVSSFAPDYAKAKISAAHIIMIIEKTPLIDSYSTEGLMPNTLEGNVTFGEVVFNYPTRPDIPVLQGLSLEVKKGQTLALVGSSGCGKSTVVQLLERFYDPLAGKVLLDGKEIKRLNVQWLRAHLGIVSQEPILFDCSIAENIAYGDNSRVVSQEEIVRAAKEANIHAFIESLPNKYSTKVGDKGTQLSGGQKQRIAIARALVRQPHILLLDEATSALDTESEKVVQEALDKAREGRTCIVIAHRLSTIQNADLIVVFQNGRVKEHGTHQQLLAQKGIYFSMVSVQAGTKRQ

human OATP4C1 = test: Transcellular basal to apical (vectorial) transport across MDCK-OATP4C1 cell monolayers; conditions: 1 h incubation
[2] = system: human OATP4C1 and human P-gp; test: Transcellular basal to apical (vectorial) transport across double-transfected MDCK-OATP4C1-P-gp cell monolayers; conditions: for Time-dependent transcellular transport in MDCK-OATP4C1-P-gp cells compared to the other tested cell lines: all time points 1, 2, 3 and 4 h; for Transport ratio MDCK-OATP4C1-P-gp/MDCK-VC: 50 µM, basolateral to apical; for Average ratio of vectorial transport (relative to MDCK-VC cells): MDCK-OATP4C1-P-gp, 1 h incubation
CAT1 = system: CAT1; set-up: method as in Chafai et al. [2017]; conditions: ref Chafai et al. [2017]; read-out: Km value for CAT1-mediated uptake; cited from earlier work
OATP4C1 = system: OATP4C1; set-up: method as in Taghikhani et al. [2019]; conditions: ref Taghikhani et al. [2019]; read-out: Km value as substrate of OATP4C1; cited from earlier work

For `CN(C)C(N)=NCCC[C@H](N)C(=O)O` [ADMA, asymmetric dimethylarginine], the Transcellular transport rate (MDCK-VC cells) is listed as 4.8 ± 0.4 pmol × mg protein^−1 × min^−1, the “Share excreted unchanged into urine” value [1] is listed as 20% and the “Share taken up into proximal tubule cells that is metabolized (e.g. by DDAH1)” value [1] is listed as about 80%. The “Average ratio of vectorial transport (relative to MDCK-VC cells)” value (shortened to “Average ratio … (relative to MDCK-VC cells)”) (human P-gp; 1 µM basal) was 1.10, the “Average ratio … (relative to MDCK-VC cells)” value (human P-gp; 20 µM basal) was 1.19 and the “Average ratio … (relative to MDCK-VC cells)” value (human P-gp; 50 µM basal) was 1.20. For the same compound, the “Average ratio … (relative to MDCK-VC cells)” value (human P-gp; 100 µM basal) was 1.30, the “Average ratio … (relative to MDCK-VC cells)” value (human OATP4C1; 1 µM basal) was 1.17 and the “Average ratio … (relative to MDCK-VC cells)” value (human OATP4C1; 20 µM basal) was 1.19. For the same compound, the “Average ratio … (relative to MDCK-VC cells)” value (human OATP4C1; 50 µM basal) was 1.14, the “Average ratio … (relative to MDCK-VC cells)” value (human OATP4C1; 100 µM basal) was 1.20 and the “Transport ratio MDCK-OATP4C1-P-gp vs MDCK-VC” value ([2]; 1 µM, 1 h) was 1.92 fold. The “Time-dependent transcellular transport in MDCK-OATP4C1-P-gp cells compared to the other tested cell lines” value ([2]; 1 µM) was “significantly higher”, the “Transport ratio MDCK-OATP4C1-P-gp/MDCK-VC” value [2] was 2.0 fold and the Transcellular transport rate ([2]; MDCK-OATP4C1-P-gp cells, 1 µM, basal to apical, 1 h) was 9.2 ± 1.2 pmol × mg protein^−1 × min^−1. For the same compound, the “Average ratio … (relative to MDCK-VC cells)” value ([2]; 1 µM basal) was 1.92, the “Average ratio … (relative to MDCK-VC cells)” value ([2]; 20 µM basal) was 1.87 and the “Average ratio … (relative to MDCK-VC cells)” value ([2]; 50 µM basal) was 2.00. For the same compound, the “Average ratio … (relative to MDCK-VC cells)” value ([2]; 100 µM basal) was 1.83.

For `NC(N)=NCCCC[C@H](N)C(=O)O` [L-homoarginine], the Km (CAT1) is given as 175 µM, the Km (OATP4C1) is given as 49.9 µM and the “Average ratio … (relative to MDCK-VC cells)” value (human P-gp; 1 µM basal) is given as 1.11. The “Average ratio … (relative to MDCK-VC cells)” value (human P-gp; 20 µM basal) was 1.61, the “Average ratio … (relative to MDCK-VC cells)” value (human P-gp; 50 µM basal) was 1.45 and the “Average ratio … (relative to MDCK-VC cells)” value (human P-gp; 100 µM basal) was 1.43. For the same compound, the “Average ratio … (relative to MDCK-VC cells)” value (human OATP4C1; 1 µM basal) was 1.33, the “Average ratio … (relative to MDCK-VC cells)” value (human OATP4C1; 20 µM basal) was 1.92 and the “Average ratio … (relative to MDCK-VC cells)” value (human OATP4C1; 50 µM basal) was 2.09. For the same compound, the “Average ratio … (relative to MDCK-VC cells)” value (human OATP4C1; 100 µM basal) was 2.31, the “Time-dependent transcellular transport in MDCK-OATP4C1-P-gp cells compared to the other tested cell lines” value ([2]; 1 µM) was “significantly higher” and the “Transport ratio MDCK-OATP4C1-P-gp/MDCK-VC” value [2] was 3.4 fold. The “Average ratio … (relative to MDCK-VC cells)” value ([2]; 1 µM basal) was 3.44, the “Average ratio … (relative to MDCK-VC cells)” value ([2]; 20 µM basal) was 3.94 and the “Average ratio … (relative to MDCK-VC cells)” value ([2]; 50 µM basal) was 3.41. The “Average ratio … (relative to MDCK-VC cells)” value ([2]; 100 µM basal) was 6.65.

For `C[C@H]1O[C@@H](O[C@H]2[C@@H](O)C[C@H](O[C@H]3[C@@H](O)C[C@H](O[C@H]4CC[C@@]5(C)[C@H](CC[C@@H]6[C@@H]5C[C@@H](O)[C@]5(C)[C@@H](C7=CC(=O)OC7)CC[C@]65O)C4)O[C@@H]3C)O[C@@H]2C)C[C@H](O)[C@@H]1O` [digoxin, reference compound], the “Transcellular transport in MDCK-P-gp in comparison to MDCK-VC” value (human P-gp; 5 µM, incubation time 1 h) was 1.7 fold.
